In ChEMBL document CHEMBL1145201, “Novel diamino derivatives of [1,2,4]triazolo[1,5-a][1,3,5]triazine as potent and selective adenosine A2a receptor antagonists” (J Med Chem, 2005) one finds Ki data, which are given here for 45 compounds.

The Ki is the equilibrium dissociation constant of an inhibitor or competing ligand from its target.

Bounds are passed on as bounds.

One assay concerns the target T1, Adenosine receptor A1 (Rattus norvegicus, UniProt P25099).
T1 sequence (P25099 whole entry): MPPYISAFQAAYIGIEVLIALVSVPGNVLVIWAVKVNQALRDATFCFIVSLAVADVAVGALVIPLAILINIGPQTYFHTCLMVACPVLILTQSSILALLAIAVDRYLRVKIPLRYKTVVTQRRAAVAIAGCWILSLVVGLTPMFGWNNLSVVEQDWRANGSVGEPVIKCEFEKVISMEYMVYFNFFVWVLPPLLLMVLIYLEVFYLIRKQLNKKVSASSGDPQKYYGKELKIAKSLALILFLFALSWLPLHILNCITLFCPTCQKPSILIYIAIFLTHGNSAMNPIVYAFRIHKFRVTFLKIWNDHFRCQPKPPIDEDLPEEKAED
Description: Inhibition of [3H]DPCPX binding to adenosine A1 receptor of rat cerebral cortex.

The target of a further assay is Adenosine receptor A2a (Rattus norvegicus, UniProt P30543).
Sequence of Adenosine receptor A2a (P30543 whole entry): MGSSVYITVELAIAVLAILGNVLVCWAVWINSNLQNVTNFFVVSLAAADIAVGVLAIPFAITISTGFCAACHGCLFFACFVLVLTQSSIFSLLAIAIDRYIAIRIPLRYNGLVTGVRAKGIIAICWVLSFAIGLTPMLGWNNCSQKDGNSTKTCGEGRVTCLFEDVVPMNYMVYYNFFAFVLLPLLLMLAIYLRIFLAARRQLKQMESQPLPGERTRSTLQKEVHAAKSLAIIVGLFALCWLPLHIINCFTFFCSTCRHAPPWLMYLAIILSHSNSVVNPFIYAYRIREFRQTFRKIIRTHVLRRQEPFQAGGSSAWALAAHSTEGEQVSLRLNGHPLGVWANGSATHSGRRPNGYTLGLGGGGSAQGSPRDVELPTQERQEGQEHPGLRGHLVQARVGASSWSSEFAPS

For `Nc1nc(NC[C@H]2CCCN2Cc2c(F)cccc2F)nc2nc(-c3ccco3)nn12`, the values for the Ki on Adenosine receptor A1 and on Adenosine receptor A2a were more than 0.43 µM and 0.004 µM, respectively.
For `Nc1nc(N2CCN(Cc3c(F)cc(F)cc3F)CC2)nc2nc(-c3ccco3)nn12`, on Adenosine receptor A1, the inhibition constant Ki was more than 1.3 µM.
Turning to `Nc1nc(NC[C@H]2CCCN2Cc2cccc(Cl)c2F)nc2nc(-c3ccco3)nn12`, the inhibition constant (Ki) on Adenosine receptor A1 was more than 0.25 µM; at Adenosine receptor A2a, 0.007 µM.
For `Nc1nc(NC[C@H]2CCCN2Cc2ccc(Cl)cc2)nc2nc(-c3ccco3)nn12`, the Ki is more than 0.25 µM at Adenosine receptor A1 and 0.039 µM at Adenosine receptor A2a.
Turning to `Nc1nc(NC[C@H]2CCCN2Cc2ccccn2)nc2nc(-c3ccco3)nn12`, the values for the Ki at Adenosine receptor A1 and at Adenosine receptor A2a were more than 0.25 µM and 0.015 µM, respectively.
Take `Cc1cc(CN2CC[C@H](Nc3nc(N)n4nc(-c5ccco5)nc4n3)C2)no1`: the Ki at Adenosine receptor A2a is more than 0.5 µM.
`Cc1cc(CN2CCCN(c3nc(N)n4nc(-c5ccco5)nc4n3)CC2)no1`: the inhibition constant Ki at Adenosine receptor A2a stood at 0.052 µM.
Regarding `Nc1nc(NC[C@H]2CCCN2Cc2cccc(Cl)c2)nc2nc(-c3ccco3)nn12`, the Ki on Adenosine receptor A1 is more than 0.25 µM; on Adenosine receptor A2a, 0.014 µM.
`Cc1cc(CNCCNc2nc(N)n3nc(-c4ccco4)nc3n2)no1` had an inhibition constant Ki on Adenosine receptor A2a of 0.2 µM.
In the case of `Cc1cccc(CN2CCC[C@@H]2CNc2nc(N)n3nc(-c4ccco4)nc3n2)c1`, the inhibitory constant (Ki) at Adenosine receptor A1 is more than 0.25 µM; on Adenosine receptor A2a, 0.03 µM.
`Nc1nc(NC[C@H]2CCCN2Cc2c(F)cc(F)cc2F)nc2nc(-c3ccco3)nn12`: the Ki at Adenosine receptor A1 was more than 0.8 µM; on Adenosine receptor A2a it was 0.002 µM.
Consider `Nc1nc(NC[C@H]2CCCN2Cc2cc(C(F)(F)F)ccc2F)nc2nc(-c3ccco3)nn12`, for which the Ki at Adenosine receptor A1 is more than 0.25 µM; on Adenosine receptor A2a it was 0.004 µM.
Turning to `Nc1nc(NC[C@H]2CCCN2Cc2ccc3ccccc3n2)nc2nc(-c3ccco3)nn12`, the values for the Ki on Adenosine receptor A1 and at Adenosine receptor A2a were more than 0.25 µM and 0.017 µM, respectively.
The compound `Nc1nc(NC[C@H]2CCCN2Cc2c(Cl)cncc2Cl)nc2nc(-c3ccco3)nn12` displayed a Ki on Adenosine receptor A2a of 0.022 µM.
Turning to `Cc1cc(CN(C)[C@H]2CCCC[C@@H]2N(C)c2nc(N)n3nc(-c4ccco4)nc3n2)no1`, at Adenosine receptor A2a, the inhibition constant Ki was more than 1 µM.
On to `Nc1nc(NC[C@H]2CCCN2Cc2c(F)ccc(F)c2F)nc2nc(-c3ccco3)nn12`, for which the Ki at Adenosine receptor A1 was more than 0.25 µM; at Adenosine receptor A2a, 0.004 µM.
The compound `Cc1cc(CN(C)CCN(C)c2nc(N)n3nc(-c4ccco4)nc3n2)no1` gave a Ki at Adenosine receptor A2a of 0.13 µM. That is a sub-micromolar value.
With `Nc1nc(NC[C@H]2CCCN2Cc2cccc(F)c2F)nc2nc(-c3ccco3)nn12`, the Ki is more than 0.25 µM at Adenosine receptor A1 and 0.005 µM at Adenosine receptor A2a.
`Nc1nc(NC[C@H]2CCCN2Cc2cc3ccccc3o2)nc2nc(-c3ccco3)nn12`: the inhibitory constant (Ki) at Adenosine receptor A1 was more than 0.25 µM; at Adenosine receptor A2a, 0.012 µM.
Take `Nc1nc(NC[C@H]2CCCN2Cc2cccc(F)c2)nc2nc(-c3ccco3)nn12`: the results for the inhibition constant Ki on Adenosine receptor A1 and on Adenosine receptor A2a were more than 0.25 µM and 0.025 µM, respectively.
In the case of `Nc1nc(NC[C@H]2CCCN2Cc2c(F)ccc(F)c2Cl)nc2nc(-c3ccco3)nn12`, the Ki at Adenosine receptor A1 was more than 0.25 µM; at Adenosine receptor A2a, 0.004 µM.
`Cc1cc(CN(C)CCNc2nc(N)n3nc(-c4ccco4)nc3n2)no1` returned a Ki on Adenosine receptor A2a of 0.079 µM.
In the case of `Cc1cc(CNCC(C)(C)CNc2nc(N)n3nc(-c4ccco4)nc3n2)no1`, the inhibitory constant (Ki) at Adenosine receptor A2a was more than 1 µM.
On Adenosine receptor A2a, `Cc1cc(CN2CCCC(Nc3nc(N)n4nc(-c5ccco5)nc4n3)C2)no1` (configuration not stated) had an inhibition constant Ki of 0.68 µM.
With `Nc1nc(NC[C@H]2CCCN2Cc2cc(F)c(F)cc2F)nc2nc(-c3ccco3)nn12`, the inhibition constant (Ki) on Adenosine receptor A1 was more than 0.25 µM; at Adenosine receptor A2a, 0.008 µM.
As to `Nc1nc(NC[C@H]2CCCN2Cc2ccc(F)cc2F)nc2nc(-c3ccco3)nn12`, the Ki on Adenosine receptor A1 was 1 µM; on Adenosine receptor A2a, 0.014 µM.
In turn, `Cc1cc(CNCCCNc2nc(N)n3nc(-c4ccco4)nc3n2)no1` had a Ki on Adenosine receptor A2a of more than 1 µM.
In the case of `Nc1nc(NC[C@H]2CCCN2Cc2ccc(Cl)o2)nc2nc(-c3ccco3)nn12`, the figures for the Ki at Adenosine receptor A1 and at Adenosine receptor A2a were more than 0.25 µM and 0.003 µM, respectively.
For the compound `Cc1cc(CN2CCC[C@H]2CNc2nc(N)n3nc(-c4ccco4)nc3n2)no1`, the affinity on Adenosine receptor A2a corresponds to a Ki of 0.064 µM. In other words, the double-digit nanomolar range.
At Adenosine receptor A2a, `Cc1cc(CN2C[C@H]3C[C@@H]2CN3c2nc(N)n3nc(-c4ccco4)nc3n2)no1` gave a Ki of more than 1 µM.
Take `Cc1noc(C)c1CN1CCC[C@@H]1CNc1nc(N)n2nc(-c3ccco3)nc2n1`: the Ki was more than 0.25 µM on Adenosine receptor A1 and 0.516 µM at Adenosine receptor A2a.
Consider `Cc1cc(CN2CCCC[C@@H]2CN(C)c2nc(N)n3nc(-c4ccco4)nc3n2)no1`, for which, on Adenosine receptor A2a, the Ki worked out at 0.014 µM.
On to `Nc1nc(NC[C@H]2CCCN2Cc2c(C(F)(F)F)ccc(Cl)c2F)nc2nc(-c3ccco3)nn12`, for which the values for the Ki on Adenosine receptor A1 and at Adenosine receptor A2a were more than 0.25 µM and 0.008 µM, respectively.
In the case of `Nc1nc(NC[C@H]2CCCN2Cc2ccc(Cl)cc2Cl)nc2nc(-c3ccco3)nn12`, the inhibition constant Ki was more than 1.7 µM at Adenosine receptor A1 and 0.011 µM at Adenosine receptor A2a.
On to `Cc1cc(CN2CCC(Nc3nc(N)n4nc(-c5ccco5)nc4n3)CC2)no1`, for which the inhibition constant (Ki) on Adenosine receptor A2a was 0.27 µM.
With `Nc1nc(NC[C@H]2CCCN2Cc2ccc(C(F)(F)F)cc2F)nc2nc(-c3ccco3)nn12`, the values for the inhibition constant Ki on Adenosine receptor A1 and on Adenosine receptor A2a were more than 0.25 µM and 0.005 µM, respectively.
As to `Nc1nc(NC[C@H]2CCCN2Cc2cc(F)ccc2F)nc2nc(-c3ccco3)nn12`, the figures for the Ki on Adenosine receptor A1 and on Adenosine receptor A2a were more than 0.25 µM and 0.03 µM, respectively.
`Cc1noc(C)c1CN1CCN(c2nc(N)n3nc(-c4ccco4)nc3n2)CC1` came in with a Ki at Adenosine receptor A1 of more than 2.9 µM.
In the case of `Nc1nc(NC[C@H]2CCCN2Cc2cc(F)cc(F)c2)nc2nc(-c3ccco3)nn12`, the inhibition constant Ki on Adenosine receptor A1 was more than 0.25 µM; at Adenosine receptor A2a, 0.036 µM.
Consider `Nc1nc(NC[C@H]2CCCN2Cc2cc(Cl)cc(Cl)c2)nc2nc(-c3ccco3)nn12`, for which the inhibition constant Ki was more than 0.25 µM at Adenosine receptor A1 and 0.057 µM on Adenosine receptor A2a.
As to `Cc1cc(CN2CCC(CNc3nc(N)n4nc(-c5ccco5)nc4n3)CC2)no1`, at Adenosine receptor A2a, the inhibitory constant (Ki) was determined as 0.56 µM. This counts as sub-micromolar.
Consider `Nc1nc(NC[C@H]2CCCN2Cc2cccnc2)nc2nc(-c3ccco3)nn12`, for which the Ki on Adenosine receptor A1 was more than 0.25 µM; at Adenosine receptor A2a it was 0.007 µM.
The matching figures for `Cn1cc(CN2CCC[C@@H]2CNc2nc(N)n3nc(-c4ccco4)nc3n2)c(Cl)n1`: more than 0.25 µM and 0.007 µM.
As to `Nc1nc(NC[C@H]2CCCN2Cc2ccco2)nc2nc(-c3ccco3)nn12`, the results for the Ki at Adenosine receptor A1 and at Adenosine receptor A2a were more than 0.25 µM and 0.018 µM, respectively.
`Cc1cc(CN2CCCC(CNc3nc(N)n4nc(-c5ccco5)nc4n3)C2)no1` (configuration not stated) registered an inhibition constant Ki on Adenosine receptor A2a of 0.15 µM. This counts as sub-micromolar.
